The text below walks through data of patent publication US20050020594A1, “Substituted pyridazinones” (Pharmacia Corporation, priority 2003, published 2005).

This experiment concerns the target T1, human p38 kinase alpha (Homo sapiens, UniProt Q16539).
T1 construct: made in house; host or cells: E. coli DH10B
In words: p38 alpha kinase assay. In kind it is biochemical. As to conditions: in vitro inhibition of activated human p38 kinase alpha; two formats described (PHAS-I/32P-ATP, EGFRP/33P-ATP), format used not stated; values given as ranges. How it is done: The ability of compounds to inhibit human p38 kinase alpha was evaluated using two in vitro assay methods. In the first method, activated human p38 kinase alpha phosphorylates a biotinylated substrate, PHAS-I (phosphorylated heat and acid stable protein-insulin inducible), in the presence of gamma ^32P-ATP (^32P-ATP). PHAS-I was biotinylated prior to the assay and provides a means of capturing the substrate, which is phosphorylated during the assay. p38 Kinase was activated by MKK6. Compounds were tested in 10 fold serial dilutions over the range of 100 μM to 0.001 μM using 1% DMSO. Each concentration of inhibitor was tested in triplicate. All reactions were carried out in 96 well polypropylene plates. Each reaction well contained 25 mM HEPES pH 7.5, 10 mM magnesium acetate and 50µM unlabeled ATP. Activation of p38 was required to achieve sufficient signal in the assay. Biotinylated PHAS-I was used at 1-2 μg per 50 μl reaction volume, with a final concentration of 1.5 μM. Activated human p38 kinase alpha was used at 1 μg per 50 μl reaction volume representing a final concentration of 0.3 μM. […] The plates were sealed and counted. […] 150 μl of Microscint 40 was then added to each well of the Microlite plate, and the plate was sealed, mixed, and counted.

T1 sequence (Q16539 whole entry): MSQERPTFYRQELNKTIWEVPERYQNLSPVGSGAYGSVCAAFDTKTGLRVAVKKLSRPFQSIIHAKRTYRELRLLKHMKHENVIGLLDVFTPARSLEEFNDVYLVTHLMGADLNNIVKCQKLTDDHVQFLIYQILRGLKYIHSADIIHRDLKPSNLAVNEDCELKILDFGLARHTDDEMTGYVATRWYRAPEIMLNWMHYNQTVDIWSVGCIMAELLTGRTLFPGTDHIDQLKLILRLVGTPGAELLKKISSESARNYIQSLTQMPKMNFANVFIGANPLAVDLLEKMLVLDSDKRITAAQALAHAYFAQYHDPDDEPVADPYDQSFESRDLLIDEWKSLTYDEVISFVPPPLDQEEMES

The term IC50 denotes the point on the concentration scale where inhibition reaches its midpoint. Low values mean greater potency in that assay, high ones weaker potency in that assay. `O=c1cc(OCCc2ccccc2)cnn1-c1c(Cl)cccc1Cl` [Compound 48, 2-(2,6-dichlorophenyl)-5-(2-phenylethoxy)pyridazin-3(2H)-one] came in with an IC50 of 40 to 60 µM.
The same measure for `Cc1c(OCCc2ccccc2)cnn(-c2c(Cl)cccc2Cl)c1=O` [Compound 49, 2-(2,6-dichlorophenyl)-4-methyl-5-(2-phenylethoxy)pyridazin-3(2H)-one]: 0.1 to 20 µM.
